Data reported in patent US20070128217A1 (priority 2003, published 2007).

Tests used:
[1] = tested on: control sera (pooled serum of ten healthy LUMC hospital workers; commercial negative donor pooled serum from the Dutch bloodbank); type: binding, human; set-up: Binding of Control serum LUMC to linear peptides / Binding of Control serum Blood-bank to linear peptides / Binding of Control serum LUMC to looped peptides / Binding of Control Serum Blood-Bank to Looped peptides / Binding of Control serum LUMC to linear peptides of the protein M of SARS-CoV Urbani / Binding of Control serum Blood-bank to linear peptides of the protein M of SARS-CoV Urbani / Binding of Control serum LUMC to looped peptides of the protein M of SARS-CoV Urbani / Binding of Control Serum Blood-Bank to Looped peptides of the protein M of SARS-CoV Urbani: unit not given here
[2] = tested on: antibodies in sera from SARS patients (sera 1a, 1b, 2, 6, 37, 62, London, SARS-yellow, SARS-green); type: binding, human; set-up: Binding of serum 6 to linear peptides of protein X1 of SARS-CoV Urbani / Binding of serum 37 to linear peptides of protein X1 of SARS-CoV Urbani / Binding of serum 6 to looped/cyclic peptide (PEPSCAN-ELISA) / Binding of serum 37 to looped/cyclic peptide (PEPSCAN-ELISA) / Binding of serum 37 to looped/cyclic peptides of protein X1 of SARS-CoV Urbani / Binding of serum 6 to linear peptides of protein X2 / Binding of serum 37 to linear peptides of protein X2 / Binding of serum 37 to looped/cyclic peptides of protein X2 of SARS-CoV Urbani / Binding of serum 6 to linear peptides of protein M of SARS-CoV Urbani / Binding of serum 37 to linear peptides of protein M of SARS-CoV Urbani / Binding of serum 6 to looped/cyclic peptides of protein M of SARS-CoV Urbani / Binding of serum 37 to looped/cyclic peptides of protein M of SARS-CoV Urbani / Binding of serum 6 to linear peptides of protein X3 of SARS-CoV Urbani / Binding of serum 37 to linear peptides of protein X3 of SARS-CoV Urbani / Binding of serum 37 to looped/cyclic peptides of protein X3 of SARS-CoV Urbani / Binding of serum 6 to linear peptides of protein X4 of SARS-CoV Urbani / Binding of serum 37 to linear peptides of protein X4 of SARS-CoV Urbani / Binding of serum 37 to looped/cyclic peptides of protein X4 of SARS-CoV Urbani / Binding of serum 6 to linear peptides of protein X5 of SARS-CoV Urbani / Binding of serum 37 to linear peptides of protein X5 of SARS-CoV Urbani / Binding of serum 37 to looped/cyclic peptides of protein X5 of SARS-CoV Urbani / Binding of serum 6 to linear peptides of protein N of SARS-CoV Urbani / Binding of serum 37 to linear peptides of protein N of SARS-CoV Urbani / Binding of serum 6 to linear peptide (PEPSCAN-ELISA) / Binding of serum 1a to looped/cyclic peptides of protein N of SARS-CoV Urbani / Binding of serum 1b to looped/cyclic peptides of protein N of SARS-CoV Urbani / Binding of serum 2 to looped/cyclic peptides of protein N of SARS-CoV Urbani / Binding of serum 6 to looped/cyclic peptides of protein N of SARS-CoV Urbani / Binding of serum 37 to looped/cyclic peptides of protein N of SARS-CoV Urbani / Binding of serum 62 to looped/cyclic peptides of protein N of SARS-CoV Urbani / Binding of serum London to looped/cyclic peptides of protein N of SARS-CoV Urbani / Binding of serum SARS-green to looped/cyclic peptides of protein N of SARS-CoV Urbani: unit not given here
[3] = tested on: recombinant human anti-SARS-CoV antibody 03-018; type: binding; set-up: Binding of antibody 03-018 to linear peptides of the N protein of SARS-CoV Urbani / Binding of antibody 03-018 to looped/cyclic peptides of the N protein of SARS-CoV Urbani: unit not given here
[4] = tested on: rabbit serum obtained by immunizing a rabbit with the SARS-CoV strain Frankfurt 1; type: binding; set-up: Binding of a rabbit serum to linear peptides / Binding of a rabbit serum to looped peptides / Rabbit serum linear peptides / Rabbit serum looped peptides / Binding of a rabbit serum to linear peptides of protein N of SARS-CoV Urbani (Rabbit serum linear peptides) / Binding of a rabbit serum to looped/cyclic peptides of protein N of SARS-CoV Urbani (Rabbit serum looped peptides): unit not given here

Sequence: SLPYGANKEGIVWVA
- Binding of Control Serum Blood-Bank to Looped peptides [1]: 0.6
- Binding of Control serum Blood-bank to linear peptides [1]: 0.9
- Binding of Control serum LUMC to linear peptides [1]: 0.7
- Binding of Control serum LUMC to looped peptides [1]: 0.6
- Binding of serum 1a to linear peptides of protein N of SARS-CoV Urbani [2]: 0.3
- Binding of serum 1a to looped/cyclic peptides of protein N of SARS-CoV Urbani [2]: 0.3
- Binding of serum 1b to linear peptides of protein N of SARS-CoV Urbani [2]: 0.1
- Binding of serum 1b to looped/cyclic peptides of protein N of SARS-CoV Urbani [2]: 0.2
- Binding of serum 2 to linear peptides of protein N of SARS-CoV Urbani [2]: 0.2
- Binding of serum 2 to looped/cyclic peptides of protein N of SARS-CoV Urbani [2]: 0.5
- Binding of serum 6 to linear peptides of protein N of SARS-CoV Urbani [2]: 0.2
- Binding of serum 6 to looped/cyclic peptides of protein N of SARS-CoV Urbani [2]: 0.3
- Binding of serum 37 to linear peptides of protein N of SARS-CoV Urbani [2]: 0.8
- Binding of serum 37 to looped/cyclic peptides of protein N of SARS-CoV Urbani [2]: 0.7
- Binding of serum 62 to linear peptides of protein N of SARS-CoV Urbani [2]: 1.2
- Binding of serum 62 to looped/cyclic peptides of protein N of SARS-CoV Urbani [2]: 0.6
- Binding of serum London to linear peptides of protein N of SARS-CoV Urbani [2]: 0.6
- Binding of serum London to looped/cyclic peptides of protein N of SARS-CoV Urbani [2]: 0.4
- Binding of serum SARS-green to linear peptides of protein N of SARS-CoV Urbani [2]: 0.5
- Binding of serum SARS-green to looped/cyclic peptides of protein N of SARS-CoV Urbani [2]: 0.3
- Binding of serum SARS-yellow to linear peptides of protein N of SARS-CoV Urbani [2]: 0.7
- Binding of serum SARS-yellow to looped/cyclic peptides of protein N of SARS-CoV Urbani [2]: 0.4
- Binding of antibody 03-018 to linear peptides of the N protein of SARS-CoV Urbani [3]: 0.1
- Binding of antibody 03-018 to looped/cyclic peptides of the N protein of SARS-CoV Urbani [3]: 0.2
- Binding of a rabbit serum to linear peptides of protein N of SARS-CoV Urbani (Rabbit serum linear peptides) [4]: 0.2
- Binding of a rabbit serum to looped/cyclic peptides of protein N of SARS-CoV Urbani (Rabbit serum looped peptides) [4]: 0.3

Sequence: FGMSRIGMEVTPSGT
- Control Serum Blood-Bank Looped peptides [1]: 0.5
- Control serum Blood-bank linear peptides [1]: 0.8
- Control serum LUMC linear peptides [1]: 0.7
- Control serum LUMC looped peptides [1]: 0.5
- Binding of serum 1a to linear peptides of protein N of SARS-CoV Urbani [2]: 0.3
- Binding of serum 1a to looped/cyclic peptides of protein N of SARS-CoV Urbani [2]: 0.3
- Binding of serum 1b to linear peptides of protein N of SARS-CoV Urbani [2]: 0.1
- Binding of serum 1b to looped/cyclic peptides of protein N of SARS-CoV Urbani [2]: 0.2
- Binding of serum 2 to linear peptides of protein N of SARS-CoV Urbani [2]: 0.2
- Binding of serum 2 to looped/cyclic peptides of protein N of SARS-CoV Urbani [2]: 0.4
- Binding of serum 6 to linear peptides of protein N of SARS-CoV Urbani [2]: 0.2
- Binding of serum 6 to looped/cyclic peptides of protein N of SARS-CoV Urbani [2]: 0.2
- Binding of serum 37 to linear peptides of protein N of SARS-CoV Urbani [2]: 0.8
- Binding of serum 37 to looped/cyclic peptides of protein N of SARS-CoV Urbani [2]: 0.4
- Binding of serum 62 to linear peptides of protein N of SARS-CoV Urbani [2]: 0.7
- Binding of serum 62 to looped/cyclic peptides of protein N of SARS-CoV Urbani [2]: 0.3
- Binding of serum London to linear peptides of protein N of SARS-CoV Urbani [2]: 0.6
- Binding of serum London to looped/cyclic peptides of protein N of SARS-CoV Urbani [2]: 0.3
- Binding of serum SARS-green to linear peptides of protein N of SARS-CoV Urbani [2]: 0.3
- Binding of serum SARS-green to looped/cyclic peptides of protein N of SARS-CoV Urbani [2]: 0.2
- Binding of serum SARS-yellow to linear peptides of protein N of SARS-CoV Urbani [2]: 0.7
- Binding of serum SARS-yellow to looped/cyclic peptides of protein N of SARS-CoV Urbani [2]: 0.3
- Binding of antibody 03-018 to linear peptides of the N protein of SARS-CoV Urbani [3]: 0.1
- Binding of antibody 03-018 to looped/cyclic peptides of the N protein of SARS-CoV Urbani [3]: 0.2
- Binding of a rabbit serum to linear peptides of protein N of SARS-CoV Urbani (Rabbit serum linear peptides) [4]: 0.2
- Binding of a rabbit serum to looped/cyclic peptides of protein N of SARS-CoV Urbani (Rabbit serum looped peptides) [4]: 0.3

Sequence: VWVATEGALNTPKDH
- Binding of Control Serum Blood-Bank to Looped peptides [1]: 0.8
- Binding of Control serum Blood-bank to linear peptides [1]: 0.6
- Binding of Control serum LUMC to linear peptides [1]: 0.8
- Binding of Control serum LUMC to looped peptides [1]: 0.6
- Binding of serum 1a to linear peptides of protein N of SARS-CoV Urbani [2]: 0.2
- Binding of serum 1a to looped/cyclic peptides of protein N of SARS-CoV Urbani [2]: 0.3
- Binding of serum 1b to linear peptides of protein N of SARS-CoV Urbani [2]: 0.1
- Binding of serum 1b to looped/cyclic peptides of protein N of SARS-CoV Urbani [2]: 0.3
- Binding of serum 2 to linear peptides of protein N of SARS-CoV Urbani [2]: 0.2
- Binding of serum 2 to looped/cyclic peptides of protein N of SARS-CoV Urbani [2]: 0.6
- Binding of serum 6 to linear peptides of protein N of SARS-CoV Urbani [2]: 0.2
- Binding of serum 6 to looped/cyclic peptides of protein N of SARS-CoV Urbani [2]: 0.4
- Binding of serum 37 to linear peptides of protein N of SARS-CoV Urbani [2]: 0.8
- Binding of serum 37 to looped/cyclic peptides of protein N of SARS-CoV Urbani [2]: 0.6
- Binding of serum 62 to linear peptides of protein N of SARS-CoV Urbani [2]: 0.7
- Binding of serum 62 to looped/cyclic peptides of protein N of SARS-CoV Urbani [2]: 0.6
- Binding of serum London to linear peptides of protein N of SARS-CoV Urbani [2]: 0.6
- Binding of serum London to looped/cyclic peptides of protein N of SARS-CoV Urbani [2]: 1.2
- Binding of serum SARS-green to linear peptides of protein N of SARS-CoV Urbani [2]: 0.5
- Binding of serum SARS-green to looped/cyclic peptides of protein N of SARS-CoV Urbani [2]: 0.7
- Binding of serum SARS-yellow to linear peptides of protein N of SARS-CoV Urbani [2]: 0.6
- Binding of serum SARS-yellow to looped/cyclic peptides of protein N of SARS-CoV Urbani [2]: 0.6
- Binding of antibody 03-018 to linear peptides of the N protein of SARS-CoV Urbani [3]: 0.1
- Binding of antibody 03-018 to looped/cyclic peptides of the N protein of SARS-CoV Urbani [3]: 0.3
- Binding of a rabbit serum to linear peptides of protein N of SARS-CoV Urbani (Rabbit serum linear peptides) [4]: 0.1
- Binding of a rabbit serum to looped/cyclic peptides of protein N of SARS-CoV Urbani (Rabbit serum looped peptides) [4]: 0.4

Sequence: SGTWLTYHGAIKLDD
- Control Serum Blood-Bank Looped peptides [1]: 1.0
- Control serum Blood-bank linear peptides [1]: 0.5
- Control serum LUMC linear peptides [1]: 0.5
- Control serum LUMC looped peptides [1]: 0.8
- Binding of serum 1a to linear peptides of protein N of SARS-CoV Urbani [2]: 0.2
- Binding of serum 1a to looped/cyclic peptides of protein N of SARS-CoV Urbani [2]: 0.8
- Binding of serum 1b to linear peptides of protein N of SARS-CoV Urbani [2]: 0.1
- Binding of serum 1b to looped/cyclic peptides of protein N of SARS-CoV Urbani [2]: 0.5
- Binding of serum 2 to linear peptides of protein N of SARS-CoV Urbani [2]: 0.1
- Binding of serum 2 to looped/cyclic peptides of protein N of SARS-CoV Urbani [2]: 0.7
- Binding of serum 6 to linear peptides of protein N of SARS-CoV Urbani [2]: 0.1
- Binding of serum 6 to looped/cyclic peptides of protein N of SARS-CoV Urbani [2]: 0.4
- Binding of serum 37 to linear peptides of protein N of SARS-CoV Urbani [2]: 0.7
- Binding of serum 37 to looped/cyclic peptides of protein N of SARS-CoV Urbani [2]: 1.0
- Binding of serum 62 to linear peptides of protein N of SARS-CoV Urbani [2]: 0.5
- Binding of serum 62 to looped/cyclic peptides of protein N of SARS-CoV Urbani [2]: 1.2
- Binding of serum London to linear peptides of protein N of SARS-CoV Urbani [2]: 0.6
- Binding of serum London to looped/cyclic peptides of protein N of SARS-CoV Urbani [2]: 0.8
- Binding of serum SARS-green to linear peptides of protein N of SARS-CoV Urbani [2]: 0.5
- Binding of serum SARS-green to looped/cyclic peptides of protein N of SARS-CoV Urbani [2]: 1.8
- Binding of serum SARS-yellow to linear peptides of protein N of SARS-CoV Urbani [2]: 0.6
- Binding of serum SARS-yellow to looped/cyclic peptides of protein N of SARS-CoV Urbani [2]: 1.6
- Binding of antibody 03-018 to linear peptides of the N protein of SARS-CoV Urbani [3]: 0.1
- Binding of antibody 03-018 to looped/cyclic peptides of the N protein of SARS-CoV Urbani [3]: 0.2
- Binding of a rabbit serum to linear peptides of protein N of SARS-CoV Urbani (Rabbit serum linear peptides) [4]: 0.1
- Binding of a rabbit serum to looped/cyclic peptides of protein N of SARS-CoV Urbani (Rabbit serum looped peptides) [4]: 0.5
